From article PMC6467533 (Chembiochem : a European journal of chemical biology, 2018)
In brackets after ≈: the same amount, converted by molar mass.

Assays:
[1] = test system: M. smegmatis biofilm formation; conditions: cited from earlier work
Ag85C = conditions: cited from earlier work
M. aurum = conditions: cited from earlier work
Mtb = conditions: cited from earlier work
Mtx TPP = Mtx TPP (Mycobacterium triplex, UniProt A0A024JUE5); assay: biochemical; parameters: species or system M. triplex
Chain of Mtx TPP (A0A024JUE5 1-354): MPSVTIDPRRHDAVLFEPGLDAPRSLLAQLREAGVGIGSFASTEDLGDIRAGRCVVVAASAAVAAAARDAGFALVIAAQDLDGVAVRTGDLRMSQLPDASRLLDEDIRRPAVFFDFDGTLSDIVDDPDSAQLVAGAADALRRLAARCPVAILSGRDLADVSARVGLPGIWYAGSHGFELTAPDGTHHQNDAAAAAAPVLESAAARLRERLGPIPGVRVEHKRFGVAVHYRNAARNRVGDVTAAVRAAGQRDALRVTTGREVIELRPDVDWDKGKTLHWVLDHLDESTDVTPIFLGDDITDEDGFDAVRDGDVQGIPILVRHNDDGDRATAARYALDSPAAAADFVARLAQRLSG

Mtb TPP = Mtb TPP (Mycobacterium tuberculosis, UniProt P9WFZ5); assay type: biochemical
Chain of Mtb TPP (P9WFZ5 whole entry, looked up): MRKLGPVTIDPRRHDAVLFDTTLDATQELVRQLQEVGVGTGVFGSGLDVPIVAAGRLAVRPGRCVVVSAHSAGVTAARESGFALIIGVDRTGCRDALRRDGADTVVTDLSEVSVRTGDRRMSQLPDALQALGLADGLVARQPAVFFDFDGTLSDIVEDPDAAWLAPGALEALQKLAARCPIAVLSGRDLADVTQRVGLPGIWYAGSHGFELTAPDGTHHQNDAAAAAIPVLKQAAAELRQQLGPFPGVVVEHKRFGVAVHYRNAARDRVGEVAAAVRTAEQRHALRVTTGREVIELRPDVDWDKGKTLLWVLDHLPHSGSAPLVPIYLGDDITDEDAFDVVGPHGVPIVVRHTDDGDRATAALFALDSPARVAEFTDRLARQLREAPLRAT

Mlt TPP = assay type: biochemical, M. lentiflavum
E. coli TPP = conditions: cited from earlier work

Compound: [N-]=[N+]=NC[C@H]1O[C@H](O[C@H]2O[C@H](CO)[C@@H](O)[C@H](O)[C@H]2O)[C@H](O)[C@@H](O)[C@@H]1O [6-azido-6-deoxy-α,α’-trehalose]
- MIC, M. smegmatis biofilm formation [1]: 50 to 100 µM
- inhibition of Ag85C activity (Ag85C): inhibit Ag85C activity
- MIC, growth of M. aurum (M. aurum): 200 mg/L

Compound: OC[C@H]1O[C@H](O[C@H]2O[C@H](CBr)[C@@H](O)[C@H](O)[C@H]2O)[C@H](O)[C@@H](O)[C@@H]1O [6-bromo-6-deoxy-α,α’-trehalose]
- MIC against Mtb (Mtb): 200 mg/L (≈ 494 µM)

Compound: CC1OC(OC2OC(CO)C(O)C(O)C2O)C(O)C(O)C1O (stereo not drawn) [6-deoxy-α,α’-trehalose]
- MIC, M. smegmatis biofilm formation [1]: 50 to 100 µM

Compound: OCC1OC(OC2OC(CF)C(O)C(O)C2O)C(O)C(O)C1O (stereo not drawn) [6-fluoro-6-deoxy-α,α’-trehalose]
- MIC, M. smegmatis biofilm formation [1]: 50 to 100 µM
- MIC against Mtb (Mtb): 200 mg/L (≈ 581 µM)

Compound: OC[C@H]1O[C@H](O[C@H]2O[C@H](CC3CO3)[C@@H](O)[C@H](O)[C@H]2O)[C@H](O)[C@@H](O)[C@@H]1O (stereo partly drawn) [Compound 7, 6-deoxy-6-oxiranyl-α,α’-trehalose]
- inhibition of Mtx TPP (Mtx TPP): no inhibition
- inhibition of Mtb TPP (Mtb TPP): no inhibition
- inhibition of Mlt TPP (Mlt TPP): no inhibition

Compound: O=P(O)(O)CC[C@H]1O[C@H](O[C@H]2O[C@H](CO)[C@@H](O)[C@H](O)[C@H]2O)[C@H](O)[C@@H](O)[C@@H]1O [TEP, 6-Deoxy-6-(methylenephosphonic acid)-α,α’-trehalose]
- IC50 (Mtx TPP): 1960 ± 261 µM

Compound: O=P(O)(O)C[C@H]1O[C@H](O[C@H]2O[C@H](CO)[C@@H](O)[C@H](O)[C@H]2O)[C@H](O)[C@@H](O)[C@@H]1O [TMP, 6-Deoxy-6-(phosphonic acid)-α,α’-trehalose]
- IC50 (Mtx TPP): 288 ± 32 µM

Compound: OCC1=C[C@@H](N[C@H]2C[C@H](CO)[C@@H](O[C@H]3O[C@@H](CO)[C@H](O)[C@@H](O)[C@@H]3O)[C@H](O)[C@H]2O)[C@H](O)[C@@H](O)[C@@H]1O [Validamycin A]
- IC50 against Mtx TPP (Mtx TPP): unexpectedly high
- inhibition of E. coli TPP (E. coli TPP): completely inhibit
- IC50 against Mtb TPP (Mtb TPP): unexpectedly high
- IC50 against Mlt TPP (Mlt TPP): unexpectedly high
